pIC50: −log10 of the molar value. Where a name gives a salt, the structure may show the parent alone.
Biological target: hATX/ENPP2 (Homo sapiens, UniProt Q13822)
Assay: hATX/ENPP2 biochemical assay using 16:0-LPC as substrate (Amplex Red/choline oxidase/HRP fluorescence)
Details: hENPP2 2.5 nM, LPC (16:0) substrate
Procedure: The enzyme is diluted in 50 mM Tris-HCl pH 8.0, 140 mM NaCl, 5 mM CaCl2, 0.01% Triton X-100 in a total volume of 5 μL. The aqueous solution of enzyme is added to the wells and incubated with different concentrations of the compounds at room temperature for 15 min. The reaction is started by the addition of 5 μL of 80 μM LPC (16:0) and 10 μL of the detection mixture containing 200 μM Amplex Red, 10 U/mL choline oxidase and 4 U/mL HRP. Fluorescence at 590 nm was measured kinetically with excitation at 530 nm. The slope of the curve (from 60 to 70 min of the reaction time) was used to calculate the compounds' IC50 values.

Structure (SMILES) | pIC50
CCc1nc2ccc(-c3cnc(NCC4CNC4)nc3)cn2c1N(C)c1nc(-c2ccc(F)cc2)c(C#N)s1 [38 (formate salt), 2-((6-(2-((azetidin-3-ylmethyl)amino)pyrimidin-5-yl)-2-ethylimidazo[1,2-a]pyridin-3-yl)(methyl)amino)-4-(4-fluorophenyl)thiazole-5-carbonitrile formate] | < 6.70
CCc1nc2ccc(-c3cnc(N4CCN(C(=O)NC5CNC5)CC4)nc3)cn2c1N(C)c1nc(-c2ccc(F)cc2)c(C#N)s1 [66 (hydrochloride salt), N-(azetidin-3-yl)-4-(5-(3-((5-cyano-4-(4-fluorophenyl)thiazol-2-yl)(methyl)amino)-2-ethylimidazo[1,2-a]pyridin-6-yl)pyrimidin-2-yl)piperazine-1-carboxamide hydrochloride] | ≥ 7.70
CCc1nc2ccc(-c3cnc(N4CC(C(=O)NC5CNC5)C4)nc3)cn2c1N(C)c1nc(-c2ccc(F)cc2)c(C#N)s1 [70 (hydrochloride salt), N-(azetidin-3-yl)-1-(5-(3-((5-cyano-4-(4-fluorophenyl)thiazol-2-yl)(methyl)amino)-2-ethylimidazo[1,2-a]pyridin-6-yl)pyrimidin-2-vl) azetidine-3-carboxamide hydrochloride] | 6.70 to 7.70
CCc1nc2ccc(-c3cnc(N4CC(C(=O)NC5CCNCC5)C4)nc3)cn2c1N(C)c1nc(-c2ccc(F)cc2)c(C#N)s1 [71 (hydrochloride salt), 1-(5-(3-((5-cyano-4-(4-fluorophenyl)thiazol-2-yl)(methyl)amino)-2-ethylimidazo[1,2-a]pyridin-6-yl)pyrimidin-2-yl)-N-(piperidin-4-yl) azetidine-3-carboxamide hydrochloride] | 6.70 to 7.70
CCc1nc2ccc(-c3cnc(N4CC(NC5CN(C)C5)C4)nc3)cn2c1N(C)c1nc(-c2ccc(F)cc2)c(C#N)s1 [80 (hydrochloride salt), 2-((2-ethyl-6-(2-(3-((I-methylazetidin-3-yl)amino)azetidin-1-yl)pyrimidin-5-yl)imidazo[1,2-a]pyridin-3-yl)(methyl)amino)-4-(4-fluorophenyl)thiazole-5-carbonitrile hydrochloride] | 6.70 to 7.70
CCc1nc2ccc(-c3cnc(N4CC(NC(=O)[C@@H]5C[C@@H](O)CN5C)C4)nc3)cn2c1N(C)c1nc(-c2ccc(F)cc2)c(C#N)s1 [81 (hydrochloride salt), (2S,4R)—N-(1-(5-(3-((5-cyano-4-(4-fluorophenyl)thiazol-2-yl)(methyl)amino)-2-ethylimidazo[1,2-a]pyridin-6-yl)pyrimidin-2-yl)azetidin-3-yl)-4-hydroxy-1-methyl pyrrolidine-2-carboxamide hydrochloride] | 6.70 to 7.70
CCc1nc2ccc(-c3cnc(N4CC(N)C4)nc3)cn2c1N(C)c1nc(-c2ccc(F)cc2)c(C#N)s1 [Compound 3, 2-((6-(2-(3-aminoazetidin-1-yl)pyrimidin-5-yl)-2-ethylimidazo[1,2-a]pyridin-3-yl)(methyl)amino)-4-(4-fluorophenyl)thiazole-5-carbonitrile] | 6.70 to 7.70
CCc1nc2ccc(-c3cnc(N4CCNCC4)nc3)cn2c1N(C)c1nc(-c2ccc(F)cc2)c(C#N)s1 [Compound 4, 2-((2-ethyl-6-(2-(piperazin-1-yl)pyrimidin-5-yl)imidazo[1,2-a]pyridin-3-yl)(methyl)amino)-4-(4-fluorophenyl)thiazole-5-carbonitrile] | 6.70 to 7.70
CCc1nc2ccc(-c3cnc(N4CCN(C(=O)[C@@H]5C[C@@H](O)CN5)CC4)nc3)cn2c1N(C)c1nc(-c2ccc(F)cc2)c(C#N)s1 [Compound 5, 2-((2-ethyl-6-(2-(4-((2S,4R)-4-hydroxypyrrolidine-2-carbonyl)piperazin-1-yl)pyrimidin-5-yl)imidazo[1,2-a]pyridin-3-yl)(methyl)amino)-4-(4-fluorophenyl)thiazole-5-carbonitrile] | ≥ 7.70
CCc1nc2ccc(-c3cnc(N4CCN(C(=O)[C@H]5C[C@@H](O)CN5)CC4)nc3)cn2c1N(C)c1nc(-c2ccc(F)cc2)c(C#N)s1 [Compound 6, 2-((2-ethyl-6-(2-(4-((2R,4R)-4-hydroxypyrrolidine-2-carbonyl)piperazin-1-yl)pyrimidin-5-yl)imidazo[1,2-a]pyridin-3-yl) (methyl)amino)-4-(4-fluorophenyl)thiazole-5-carbonitrile] | ≥ 7.70
CCc1nc2ccc(-c3cnc(N4CCN(C(=O)[C@@H]5C[C@H](O)CN5)CC4)nc3)cn2c1N(C)c1nc(-c2ccc(F)cc2)c(C#N)s1 [Compound 7, 2-((2-ethyl-6-(2-(4-((2S,4S)-4-hydroxypyrrolidine-2-carbonyl)piperazin-1-yl)pyrimidin-5-yl)imidazo[1,2-a]pyridin-3-yl)(methyl)amino)-4-(4-fluorophenyl) thiazole-5-carbonitrile] | ≥ 7.70
CCc1nc2ccc(-c3cnc(N4CCN(C(=O)[C@H]5C[C@H](O)CN5)CC4)nc3)cn2c1N(C)c1nc(-c2ccc(F)cc2)c(C#N)s1 [Compound 8, 2-((2-ethyl-6-(2-(4-((2R,4S)-4-hydroxypyrrolidine-2-carbonyl)piperazin-1-yl)pyrimidin-5-yl)imidazo[1,2-a]pyridin-3-yl)(methyl)amino)-4-(4-fluorophenyl)thiazole-5-carbonitrile] | ≥ 7.70
CCc1nc2ccc(-c3cnc(N4CCN(C(=O)C5CNC5)CC4)nc3)cn2c1N(C)c1nc(-c2ccc(F)cc2)c(C#N)s1 [Compound 9, 2-((6-(2-(4-(azetidine-3-carbonyl)piperazin-1-yl)pyrimidin-5-yl)-2-ethylimidazo[1,2-a]pyridin-3-yl)(methyl)amino)-4-(4-fluorophenyl)thiazole-5-carbonitrile] | ≥ 7.70
CCc1nc2ccc(-c3cnc(C(=O)N4CC(O)C4)nc3)cn2c1N(C)c1nc(-c2ccc(F)cc2)c(C#N)s1 [Compound 11, 2-((2-ethyl-6-(2-(3-hydroxyazetidine-1-carbonyl)pyrimidin-5-yl)imidazo[1,2-a]pyridin-3-yl)(methyl)amino)-4-(4-fluorophenyl)thiazole-5-carbonitrile] | 6.70 to 7.70
CCc1nc2ccc(-c3cnc(C(=O)N4CC(NC5CC5)C4)nc3)cn2c1N(C)c1nc(-c2ccc(F)cc2)c(C#N)s1 [Compound 12, 2-((6-(2-(3-(cyclopropylamino)azetidine-1-carbonyl)pyrimidin-5-yl)-2-ethylimidazo[1,2-a]pyridin-3-yl)(methyl)amino)-4-(4-fluorophenyl)thiazole-5-carbonitrile] | 6.70 to 7.70
CCc1nc2ccc(-c3cnc(C(=O)N4CC(NC5CCC5)C4)nc3)cn2c1N(C)c1nc(-c2ccc(F)cc2)c(C#N)s1 [Compound 13, 2-((6-(2-(3-(cyclobutylamino)azetidine-1-carbonyl)pyrimidin-5-yl)-2-ethylimidazo[1,2-a]pyridin-3-yl)(methyl)amino)-4-(4-fluorophenyl)thiazole-5-carbonitrile] | < 6.70

More lines, now with the values ahead:

pIC50 | Structure (SMILES)
6.70 to 7.70 | CCc1nc2ccc(-c3cnc(C(=O)N4CC(N5CCC5)C4)nc3)cn2c1N(C)c1nc(-c2ccc(F)cc2)c(C#N)s1 [Compound 14, 2-((6-(2-([1,3′-biazetidine]-1′-carbonyl)pyrimidin-5-yl)-2-ethylimidazo[1,2-a]pyridin-3-yl)(methyl)amino)-4-(4-fluorophenyl) thiazole-5-carbonitrile]
6.70 to 7.70 | CCc1nc2ccc(-c3cnc(C(=O)N4CCC(O)CC4)nc3)cn2c1N(C)c1nc(-c2ccc(F)cc2)c(C#N)s1 [Compound 15, 2-((2-ethyl-6-(2-(4-hydroxypiperidine-1-carbonyl)pyrimidin-5-yl)imidazo[1,2-a]pyridin-3-yl)(methyl)amino)-4-(4-fluorophenyl)thiazole-5-carbonitrile]
6.70 to 7.70 | CCc1nc2ccc(-c3cnc(C(=O)NC4(C#N)CC4)nc3)cn2c1N(C)c1nc(-c2ccc(F)cc2)c(C#N)s1 [Compound 16, 5-(3-((5-cyano-4-(4-fluorophenyl)thiazol-2-yl)(methyl)amino)-2-ethylimidazo[1,2-a]pyridin-6-yl)-N-(1-cyanocyclopropyl)pyrimidine-2-carboxamide]
6.70 to 7.70 | CCc1nc2ccc(-c3cnc(N4CCC(NC5(C#N)CC5)CC4)nc3)cn2c1N(C)c1nc(-c2ccc(F)cc2)c(C#N)s1 [Compound 17, 2-((6-(2-(4-((1-cyanocyclopropyl)amino)piperidin-1-yl)pyrimidin-5-yl)-2-ethylimidazo[1,2-a]pyridin-3-yl)(methyl)amino)-4-(4-fluorophenyl)thiazole-5-carbonitrile]
≥ 7.70 | CCc1nc2ccc(-c3cnc(N4CCC(NC5(CO)CC5)CC4)nc3)cn2c1N(C)c1nc(-c2ccc(F)cc2)c(C#N)s1 [Compound 18, 2-((2-ethyl-6-(2-(4-((1-(hydroxymethyl)cyclopropyl)amino)piperidin-1-yl)pyrimidin-5-yl)imidazo[1,2-a]pyridin-3-yl) (methyl)amino)-4-(4-fluorophenyl)thiazole-5-carbonitrile]
≥ 7.70 | CCc1nc2ccc(-c3cnc(N4CCC(NC(=O)C5(O)CC5)CC4)nc3)cn2c1N(C)c1nc(-c2ccc(F)cc2)c(C#N)s1 [Compound 19, N-(1-(5-(3-((5-cyano-4-(4-fluorophenyl)thiazol-2-yl)(methyl)amino)-2-ethylimidazo[1,2-a]pyridin-6-yl)pyrimidin-2-yl)piperidin-4-yl)-1-hydroxycyclopropane-1-carboxamide]
6.70 to 7.70 | CCc1nc2ccc(-c3cnc(N4CCC(NC(=O)C5(C#N)CC5)CC4)nc3)cn2c1N(C)c1nc(-c2ccc(F)cc2)c(C#N)s1 [Compound 20, 1-cyano-N-(1-(5-(3-((5-cyano-4-(4-fluorophenyl)thiazol-2-yl)(methyl)amino)-2-ethylimidazo[1,2-a]pyridin-6-yl)pyrimidin-2-yl)piperidin-4-yl) cyclopropane-1-carboxamide]

Reference: patent publication US11970493B2, “Autotaxin inhibitor compounds” (ILDONG PHARMACEUTICAL CO., LTD., priority 2020, dated 2024)
